Measured values reported in patent publication US20250188043A1 (ReproNovo SA, priority 2023, published 2025).
Values after ≈ are worked out from the molar mass of the structure shown.

Key:
[1] = Cellular transport by Caco-2 assay; type: in vitro ADME, humans; conditions: human
Source text: (§1) The ratio of B-A/A-B is 0.43.

Caco-2 cell model = assay: Cellular transport by Caco-2 assay; type: in vitro ADME, humans
Source text: as §1

[2] = Metabolic stability in human liver microsomes; type: in vitro ADME
[3] = Pharmacokinetics in naïve female mice; conditions: mouse, in vivo, NMP-PEG300 10/90
[4] = system: obese and overweight men with hypogonadism and low total motile sperm count; assay: Extension of treatment to 48 total weeks; type: in vivo, human; conditions: for serum testosterone change from baseline / serum testosterone level: 48-week period
[5] = Chemical stability stress test: bulk solid and suspensions in buffer; type: physicochemical; conditions: for Leflutrozole Peak Area, After: 1 week; for degradation: all suspensions tested
Experimental: The stress test conditions were bulk crystalline solid at room temperature (RT, about 25° C.) and 80° C. for one week or storage in buffer solutions of different pH (1, 4, and 7.4) at RT or at 80° C. for one week. Additional experiments were performed at 50° C. if degradation by more than 5% was observed during the analogous 80° C. experiment.

[6] = Effect of oxygen (high oxygen content air or N2); type: physicochemical; conditions: high oxygen content air or inert atmosphere (N2)
Source text: Oxidative degradation of leflutrozole is the primary pathway by which leflutrozole degrades outside of the synthesis process. Defluorination and oxidation that coincides with removal of the […] moiety yields the compound of Formula IV.

Thermodynamic solubility = type: physicochemical; conditions: thermodynamic from solid

Compound: N#Cc1ccc(C(F)(c2ccc(C#N)cc2)n2cncn2)cc1 [leflutrozole, 4-[(4-cyanophenyl)-fluoro-(1,2,4-triazol-1-yl)methyl]benzonitrile]
- Papp A→B ([1]; read-out: apparent permeability, apical to basolateral): 54.5 ×10⁻⁶ cm/s
- Papp B→A ([1]; read-out: apparent permeability, basolateral to apical): 23.2 ×10⁻⁶ cm/s
- apparent permeability (in words) (Caco-2 cell model): very high apparent permeability
- contribution of efflux transporters such as P-glycoprotein (Caco-2 cell model): no detectable contribution of efflux transporters
- half-life [2]: 3.35 h
- CLint scaled ([2]; read-out: intrinsic clearance (CLint)): 6.9 mL/min/kg
- AUC(0-inf) ([3]; iv, 1 mg/kg i.v.): 34 µM·h
- AUC(0-t) ([3]; iv, 1 mg/kg i.v.): 21 µM·h
- clearance ([3]; iv, 1 mg/kg i.v.): 1.5 mL/min
- half-life ([3]; iv, 1 mg/kg i.v.): 13 h
- AUC(0-inf) ([3]; po, 2.5 mg/kg p.o.): 70.2 µM·h
- AUC(0-t) ([3]; po, 2.5 mg/kg p.o.): 61.7 µM·h
- Cmax ([3]; po, 2.5 mg/kg p.o.): 2930 nM
- half-life ([3]; po, 2.5 mg/kg p.o.): 13 h
- bone specific alkaline phosphatase ([4]; 0.1 mg treatment arm only): significant increase
- serum testosterone change from baseline ([4]; 0.1 mg): 243.0 ng/dL
- serum testosterone level ([4]; 0.1 mg): 494.9 ng/dL
- serum testosterone change from baseline ([4]; 0.3 mg): 290.6 ng/dL
- serum testosterone level ([4]; 0.3 mg): 549.7 ng/dL
- serum testosterone change from baseline ([4]; 1.0 mg): 376.2 ng/dL
- serum testosterone level ([4]; 1.0 mg): 595.1 ng/dL
- bone turnover markers (type I collagen C-telopeptides, procollagen-1 N-terminal propeptide, osteocalcin) ([4]; by week 48): increases in all leflutrozole treatment groups
- change in BMD for the hip or femoral neck ([4]; week 48): no significant change
- clinical meaning of reductions in BMD of the lumbar spine ([4]; week 48): did not indicate clinically meaningful osteopenia or osteoporosis
- percentage decrease of lumbar BMD (DEXA) ([4]; week 48, any treatment group): ≥ −3%

Compound: N#Cc1ccc(C(F)(c2ccc(C#N)cc2)n2cncn2)cc1 [Form A leflutrozole, 4-[(4-cyanophenyl)-fluoro-(1,2,4-triazol-1-yl)methyl]benzonitrile]
- Leflutrozole Peak Area, After ([5]; Bulk Solid, RT): 99.6% peak area
- Leflutrozole Peak Area, After ([5]; Bulk solid, 80° C., listed as Form A of leflutrozole): 99.7 % peak area
- Leflutrozole Peak Area, After ([5]; Bulk solid, 80° C., listed as crystalline Form A leflutrozole): 99.7% peak area
- Leflutrozole Peak Area, After ([5]; Suspension in buffer, pH 1, 50° C.): 79.8% peak area
- Leflutrozole Peak Area, After ([5]; Suspension in buffer, pH 1, 80° C.): 18.5% peak area
- Leflutrozole Peak Area, After ([5]; Suspension in buffer, pH 4, 50° C.): 94.3% peak area
- Leflutrozole Peak Area, After ([5]; Suspension in buffer, pH 4, 80° C.): 0.6% peak area
- Leflutrozole Peak Area, After ([5]; Suspension in buffer, pH 7.4, 50° C.): 95.5% peak area
- Leflutrozole Peak Area, After ([5]; Suspension in buffer, pH 7.4, 80° C.): 1.1% peak area
- degradation ([5]; 1 week at 50° C.): > 4%
- degradation ([5]; 80° C. for 1 week, irrespective of buffer pH): > 80%
- Leflutrozole Peak Area, Before ([5]; before stress test): 99.7% peak area
- major decomposition product ([5]; sample stored at pH 7.4 and 80° C., LC-MS): compound of Formula (IV)
- degradation on exposure to air (in words) [6]: does not degrade readily when exposed to air
- solubility thermodynamic (Thermodynamic solubility; 0.05 M potassium biphthalate buffer, aqueous buffer, 0.05M buffer pH 3 - Potassium Biphthalate): < 30 µg/mL
- solubility thermodynamic (Thermodynamic solubility; 0.05 M potassium chloride buffer, aqueous buffer, 0.05M buffer pH 1 - Potassium Chloride): < 30 µg/mL
- solubility thermodynamic (Thermodynamic solubility; 0.05 M potassium phosphate buffer, aqueous buffer, 0.05M buffer pH 6.86 - Potassium Phosphate): < 30 µg/mL
- solubility thermodynamic (Thermodynamic solubility; 0.05 M sodium acetate buffer, aqueous buffer, 0.05M buffer pH 4.63 - Sodium Acetate): < 30 µg/mL
- solubility thermodynamic (Thermodynamic solubility; 1% Cremophor EL in water, aqueous with cosolvent or surfactant or cyclodextrin): < 30 µg/mL
- solubility thermodynamic (Thermodynamic solubility; 1% Tween 80 in water, aqueous with cosolvent or surfactant or cyclodextrin): < 30 µg/mL
- solubility thermodynamic (Thermodynamic solubility; 1% sodium dioctyl sulfosuccinate in water, aqueous with cosolvent or surfactant or cyclodextrin): 170 µg/mL (≈ 561 µM)
- solubility thermodynamic (Thermodynamic solubility; 1% sodium lauryl sulfate in water, aqueous with cosolvent or surfactant or cyclodextrin): 470 µg/mL (≈ 1550 µM)
- solubility thermodynamic (Thermodynamic solubility; 10% Cremophor EL in water, aqueous with cosolvent or surfactant or cyclodextrin): 190 µg/mL (≈ 626 µM)
- solubility thermodynamic (Thermodynamic solubility; 10% PEG400 in water, aqueous with cosolvent or surfactant or cyclodextrin): < 30 µg/mL
- solubility thermodynamic (Thermodynamic solubility; 10% PG in water, aqueous with cosolvent or surfactant or cyclodextrin): < 30 µg/mL
- solubility thermodynamic (Thermodynamic solubility; 10% ethanol in water, aqueous with cosolvent or surfactant or cyclodextrin): < 30 µg/mL
- solubility thermodynamic (Thermodynamic solubility; 20% hydroxypropyl β-cyclodextrin in water, aqueous with cosolvent or surfactant or cyclodextrin): 870 µg/mL (≈ 2870 µM)
- solubility thermodynamic (Thermodynamic solubility; 20% sulfobutyl ether β-cyclodextrin (Captisol) in water, aqueous with cosolvent or surfactant or cyclodextrin): 1050 µg/mL (≈ 3460 µM)
- solubility thermodynamic (Thermodynamic solubility; Cremophor EL, organic solvent or mixture): 280 µg/mL (≈ 923 µM)
- solubility thermodynamic (Thermodynamic solubility; FaSSIF): < 30 µg/mL
- solubility thermodynamic (Thermodynamic solubility; FeSSIF): < 30 µg/mL
- solubility thermodynamic (Thermodynamic solubility; Miglyol, oil or lipid): 720 µg/mL (≈ 2370 µM)
- solubility thermodynamic (Thermodynamic solubility; SGF, simulated gastric fluid): < 30 µg/mL
- solubility thermodynamic (Thermodynamic solubility; aqueous buffer, 0.05M buffer pH 7.4 - Potassium Phosphate): < 30 µg/mL
- solubility thermodynamic (Thermodynamic solubility; aqueous buffer, 0.05M buffer pH 9 - Boric Acid): < 30 µg/mL
- solubility thermodynamic (Thermodynamic solubility; aqueous buffer, pH 12 - 0.1N Sodium Hydroxide): < 30 µg/mL
- solubility thermodynamic (Thermodynamic solubility; ethanol, organic solvent or mixture): 3840 µg/mL (≈ 12700 µM)
- solubility thermodynamic (Thermodynamic solubility; polyethylene glycol 400, organic solvent or mixture): 6230 µg/mL (≈ 20500 µM)
- solubility thermodynamic (Thermodynamic solubility; propylene glycol, organic solvent or mixture): 2270 µg/mL (≈ 7480 µM)
- solubility thermodynamic (Thermodynamic solubility; water): < 30 µg/mL
